The subject of one data set is p-Chk. Put plainly: Immunostaining of p-Chk in HaCaT cells upon UVB radiation. It is filed as cell-based, Human. As to conditions: immunofluorescence. An excerpt: FIG. 5C: Immunostaining of p-Chk in HaCaT cells upon UVB radiation with or without carnosol treatment. P-Chk was stained with green fluorescent, while nucleus was stained by DAPI. Scale indicates 20 μm.
(§1) Both human keratinocyte (HaCaT) and mouse embryonic fibroblast (MEF) cells were used, and the protein levels of γH2AX and phosphor-Chk were used as DNA damage marker. […] Similar results are observed in MEF cells as both the phosphorylation level of H2AX and Chk reduced at early stage post UVB radiation (FIG. 5B). […] To further show the protection effect of carnosol on UVB-irradiated cell, a comet assay was performed. […] Thus, carnosol ast least partially protect the DNA damage from UVB radiation.

Another data set has as its system IκB. Put plainly: Western blot for IκB protein level, HaCaT cells. It is filed as cell-based, Human. Here is the method:
FIGS. 7A-7F: Carnosol inhibited UVB-induced NF-κB activation. Cells were exposed to UVB radiation in the presence or absence of carnosol. Cells were lysed at indicated time point and protein levels were measured by western blot analysis. (FIG. 7A) Western blot for IκB protein level in HaCaT cells at 2, 4 h post UVB radiation at 1, 10 or 20 μM carnosol treatment. (FIG. 7B) Western blot analysis for IκB protein level in HaCaT cells at 6 h post UVB radiation in the presence or absence of carnosol. (FIG. 7C) Western blot analysis for IκB protein level in MEF cells at 6 h post UVB radiation in the presence or absence of carnosol. (FIG. 7D) Western blot for 5276 site phosphorylation of NF-κB in HaCaT cells at 6 h post UVB with indicated carnosol concentration. (FIG. 7E) EMSA assay for HaCaT cells at 2, 4, 6 h post UVB radiation in the presence or absence of carnosol (20 μM). (FIG. 7F) Statistical analysis of the EMSA assay using two to three sets of independent experiments. *p<0.05 versus control group, **p<0.05 versus UV group at indicated time point.
Cells were lysed with Nonidet P-40 (NP-40) lysis buffer (2% NP-40, 80 mM NaCl, 100 mM Tris-HCl pH 8.0, 0.1% SDS) with proteinase inhibitor mixture (Complete™, Roche Molecular Biochemicals) at indicated time point. […] Protein concentration was measured by Protein DC Assay kit (Bio-Rad Laboratories). […]

The subject of data set [1] is A431 human squamous carcinoma cell. Put plainly: Clonogenic assay, A431. In kind it is cell-based. Here is the method: (§2) FIGS. 9A-9B. Carnosol decreases A431 cancer cell progression. Squamous carcinoma cell A431 was used to determine the effect of carnosol on cancer cell progression. (FIG. 9A) Effect of carnosol on cell viability. Cells were treated upon 50 mJ/cm^2 UVB radiation with or without carnosol treatment. After 24 h, cells were collect and MTT assay was performed to determine the cell viability. *p<0.05 versus control group, **p<0.05 versus UV group at indicated time point. (FIG. 9B) Effect of carnosol on clonogenic assay. Cells were exposed to 8 mJ/cm^2 UVB exposure in the presence or absence of carnosol. 5×10^3 cells were plated into 6 well plate immediately after treatment and incubated for […]. The error bars present the standard deviation of three sets of independent experiments. *p<0.05 versus control group, **p<0.05 versus UV group at indicated time point.
Immediate after treatment, cells were harvested with 0.25% trypsin-EDTA and counted, and then 5×10^3 cells were plated in 6-well plates. After 6 days, cells were fixed with cold methanol for 10 mM at […] and then stained by 1% crystal violet in 25% methanol for 10 mM. Cells were then rinsed with distilled water and colonies with a size greater than 0.4 mm were counted by Kodak IS in vivo F system equipped with Kodak Molecular Imaging Software (Eastman Kodak).

Data set [2] has the same test system. Put plainly: MTT cell viability assay, A431. In kind it is cell-based. The following applies: A431, carnosol plus 50 mJ/cm^2 UVB, 24 h, vs no treatment control; UVB alone about 50%. Here is the method:
as §2
Since carnosol protects cell death upon UVB radiation, how carnosol affects skin cancer cells was also determined. A431 human squamous carcinoma cell was used as it is one of the cancer types that keratinocyte would develop. Cell viability was determined by MTT assay.
In general terms: Formazan colour is commonly taken as a measure of viable cells.

The test system of another data set is HaCaT cells. Put plainly: Comet assay for HaCaT exposed to UVB radiation. It is filed as cell-based, Human. The following applies: semi-quantitative by Image J.
From the text: FIG. 5D: Comet assay for HaCaT exposed to UVB radiation. After cell treatment, cells were trypsinized and collect for comet assay. The tail intensity was semi-quantitatively analyzed using Image J.
as §1

Each structure is given as a SMILES string.

For orientation: cell viability means a per cent measure of how many cells are alive, often set against a control. With `CC(C)c1cc2c(c(O)c1O)[C@@]13CCCC(C)(C)[C@@H]1C[C@@H]2OC3=O` [carnosol], in the data set on p-Chk, the “UVB-induced expression level of p-Chk in nucleus” value is “significantly reduce”. For the same compound, the IκB protein level entry in the data set with IκB (HaCaT, 2, 4 h post UVB, dose dependent (1, 10, 20 μM)) is “protects IκB level”; in the data set on IκB (HaCaT, 6 h post UVB) it was “protection exists at least until 6 h”. The “effect of double treatment on reduction of cancer cell survival” value in data set [1] (A431, carnosol and UVB radiation together) was “synergistic effect”. In addition, the colony formation entry in data set [1] (A431, carnosol combined with 8 mJ/cm^2 UVB, UVB alone about 43%) is “about 17%”. For the same compound, in data set [1] (A431, carnosol treatment alone), the colony formation rate entry is given as “about 65%”. Besides, in data set [2], the cell viability worked out at 30%. For the same compound, in the data set on HaCaT cells, the “comet tail intensity upon UVB radiation” value is “almost by half”.

For the origin of these results see US20190388389A1, “METHODS AND COMPOSITIONS OF CARNOSOL FOR INHIBITING UVB-INDUCED SKIN DAMAGE” (Ohio University, priority 2017, published 2019).
